Test results taken from patent US20100167265A1, “VACCINE AGAINST INFECTIOUS AGENTS HAVING AN INT[…], COMPOSITION FOR THE TREATMENT AND PREVENTION OF HIV INFECTIONS, ANTIBODIES AND METHOD OF DIAGNOSIS” (INSTITUT NATIONAL de la SANTE ET DE LA RECHERCHE MEDICALE …, priority 1995, published 2010).

How the values were obtained:
B1G6 monoclonal antibody = test: Effect of selected peptides on the neutralization of HIV-1 NDK by B1G6 monoclonal antibody on PBLs; assay type: cell-based; settings: peptide 100 or 50 μg/ml; B1G6 5 μg/ml
Experimental: The peptides at a concentration of 100 μg/ml or 50 μg/ml (40 μl or 20 μl of the stock solution and 5 mg/ml) are preincubated with 5 μg/ml of B1G6 (10 μl of a stock solution at 1 mg/ml) in a total volume of 110 μl for 2 hours, in tubes on a water bath at 37° C., with gentle stirring. Next, HIV-1 NDK is added (100 μl of a 2×10^−4 dilution of a stock solution and the tubes are incubated for 1 hour at 37° C. on a water bath. The tubes are then separated into two and each 100 μl is added to 10^6 PBLs on a 24-well plate. The cells are cultured for 3 days at 37° C. under an atmosphere with 5% CO2. On day 3, the cells are washed, placed in culture and propagated for at least 20-25 days in a 25 cm^3 round-bottomed flask. The production of virus is monitored every 3 or 4 days by the assay of reverse transcriptase (RT).

R7V = target: T1, R7V (Homo sapiens, UniProt P61769); test: Immune response of rabbits immunized with peptide-KLH, serum ELISA on peptide; assay type: in vivo, rabbit
T1 construct: The peptide R7V (RTPKIQV) was extended by 2 amino acids in order to allow the coupling
Experimental: The peptide antigen 7AA is coupled to KLH (Keyhole Limpet Hemocyanin) and injected into rabbits in the presence of complete Freund's adjuvant.
The animals are immunized in the presence of complete Freund's adjuvant at D0, D14, D28, D42 and trial bleedings are carried out before immunization on days 35, 49, 56 and 70.
The peptides used are: RV7-KLH, S7K-KLH and F7E-KLH
The peptide R7V (RTPKIQV) was extended by 2 amino acids in order to allow the coupling. The structure used as immunogen is […].
The antibodies of the rabbits immunized 618 were measured by ELISA, where the peptide coupled to various carrier proteins was used at the bottom of the well (either coupled to KLH, to BSA (Bovine Serum Albumin) or MAP (Multiple Antigenic Peptide)).
The diagrams represent the results obtained at 2 dilutions d100 and d1000, that is to say a 1/100 and 1/1000 dilution of the sera, or at different times. […]
→(Ag)final=1 μg/ml • distribute 100 μl/well, that is to 100 ng/well • incubate 2 h at 37° C. or overnight at 4° C. […] (in a humid atmosphere). • 8) Washes (identical to point 2) • 9) Visualization with OPD • dissolve 10 mg OPD in 25 ml of phosphocitrate buffer (0.1 M, pH 5.5) • add at the last moment 10 μl H2O2 • distribute 100 μl/well and incubate 30 min in the dark at room temperature (may be read at 405 nm) • stop the reaction with 50 μl H2SO4 12.5 k. • 10) Reading at 492 nm.

Row | Substance | canceling of the neutralizing effect of B1G6 on the production of HIV-1 NDK by the PBLs (B1G6 monoclonal antibody) | immune response generated (R7V)
1 | FHPSDIE [F7E] | can cancel the neutralizing effect | –
2 | RTPKIQV [R7V] | can cancel the neutralizing effect | good immune response
3 | IQRTPNIVKW [compound 190] | lost the canceling effect | –
4 | TLSRTPKIQV [compound 185] | lost the canceling effect | –
5 | IQRTPQIVKW [compound 189] | lost the canceling effect | –
